pIC50: −log10 of the molar value.

The target of the assay is AOC3 (Homo sapiens (Human), UniProt Q16853). In words: MAO-Glo AOC3 assay. In kind it is biochemical. The following applies: recombinant CHO cells overexpressing AOC3 enzyme. An excerpt: The MAO-Glo™ Assay (commercial available from PROMEGA, #V1402) provides a sensitive method for the measurement of monoamine oxidase (MAO) activity (Valley, M. P. et al., 2006, Anal. Biochem. 359: 238-246) from a variety of tissues, biofluids or recombinant expressed or purified enzymes. As substrate a derivate of the beetle luciferin ((4S)-4,5-dihydro-2-(6-hydroxybenzothiazolyl)-4-thiazole-carboxylic acid) is used, which is oxidized at a primary amine moiety. After a spontaneous elimination and a catalyzed esterase reaction, the turnover of the luciferine by the luciferase is recorded as a signal of AOC3 activity.
Chain of AOC3 (Q16853 whole entry): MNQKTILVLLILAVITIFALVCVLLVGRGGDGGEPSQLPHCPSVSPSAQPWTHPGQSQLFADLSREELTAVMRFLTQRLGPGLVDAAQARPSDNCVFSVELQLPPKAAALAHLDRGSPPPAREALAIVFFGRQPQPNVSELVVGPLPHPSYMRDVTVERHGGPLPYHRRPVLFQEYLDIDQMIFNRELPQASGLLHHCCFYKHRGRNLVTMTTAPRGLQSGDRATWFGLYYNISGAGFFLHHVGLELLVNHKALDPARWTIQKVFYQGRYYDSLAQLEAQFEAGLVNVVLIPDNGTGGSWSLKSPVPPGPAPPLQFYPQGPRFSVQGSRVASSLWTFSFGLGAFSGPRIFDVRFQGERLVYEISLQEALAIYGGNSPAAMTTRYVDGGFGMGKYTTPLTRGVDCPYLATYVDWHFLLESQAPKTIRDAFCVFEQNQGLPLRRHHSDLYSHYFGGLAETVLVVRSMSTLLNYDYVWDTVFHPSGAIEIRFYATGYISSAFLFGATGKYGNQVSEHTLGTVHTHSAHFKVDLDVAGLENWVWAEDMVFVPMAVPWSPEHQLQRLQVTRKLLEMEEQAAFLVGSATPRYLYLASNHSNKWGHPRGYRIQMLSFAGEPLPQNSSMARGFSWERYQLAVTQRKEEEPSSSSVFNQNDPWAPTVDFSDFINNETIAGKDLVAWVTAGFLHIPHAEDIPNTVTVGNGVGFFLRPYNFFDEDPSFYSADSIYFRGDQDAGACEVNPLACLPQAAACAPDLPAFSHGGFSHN
An aliquot of 3 μL of the compound dilution is added to a 384 well plate (Optiplate, PS, flat bottom, white, PERKIN ELMER, #6007290) with a final DMSO concentration of 6.6%. Recombinant CHO cells, overexpressing the human (1500 cells/well), mouse (1000 cells/well) or rat (500 cells/well) AOC3 enzyme are diluted in reaction buffer and added in a volume of 15 μL to the wells. After incubation for 20 minutes at 37° C., 2 μL of MAO substrate (dissolved in DMSO at 16 mM, adjusted to assay concentration in reaction buffer to a final assay concentration of 20 μM) is added and further incubated for 60 minutes at 37° C. The turnover of the substrate is determined by the addition of 20 μL of the detection-mix which was generated by the addition of reconstitution buffer with esterase (PROMEGA, #V1402) to the luciferine detection reagent (PROMEGA, #V1402). After an incubation period of 20 minutes, the luminescent signal is measured with Envision 2104 Multilabel Reader (PERKIN ELMER).
Broadly, the pIC50 is −log10 of the IC50, conventionally taken in molar units. With `N#Cc1ccc(COC(=O)NC(=N)N)c(F)c1N1CCCN(c2cccnc2)CC1` [Example 1.011], the pIC50 is 7.02.
Under `N#Cc1ccc(COC(=O)NC(=N)N)c(F)c1N1CC(c2ccccn2)C1` [Example 1.087] stands 6.33.
Under `CC1CN(c2c(C#N)ccc(COC(=O)NC(=N)N)c2F)CCN1c1ccccc1` (centres unmarked) [Example 1.070] stands 7.19; under `CN(C)C(=O)c1ccc(N2CCN(c3c(C#N)ccc(COC(=O)NC(=N)N)c3F)CC2)cc1` [Example 1.026], 7.15.
On to `COc1cccc(C2=CCN(c3c(C#N)ccc(COC(=O)NC(=N)N)c3F)CC2)c1` [Example 1.061], for which the pIC50 was 7.52.
The value for `N#Cc1ccc(COC(=O)NC(=N)N)c(F)c1N1CCC(C2CCN(S(N)(=O)=O)CC2)CC1` [Example 1.079] was 8.05; that for `Cc1ccc(C2CCN(c3c(C#N)ccc(COC(=O)NC(=N)N)c3F)CC2)cc1` [Example 1.072] was 6.68; that for `Cc1cnc(C2=CCN(c3c(C#N)ccc(COC(=O)NC(=N)N)c3F)CC2)o1` [Example 1.071] was 7.92.
Under `N#Cc1cccc(N2CCN(c3c(C#N)ccc(COC(=O)NC(=N)N)c3F)CC2)c1` [Example 1.040] stands 8.70; under `COc1cnc(N2CCN(c3c(C#N)ccc(COC(=O)NC(=N)N)c3F)CC2)nc1` [Example 1.056], 7.82.
The value for `CS(=O)(=O)c1ccc(N2CCN(c3c(C#N)ccc(COC(=O)NC(=N)N)c3F)CC2)cc1` [Example 1.002] was 8.22; that for `N#Cc1ccc(COC(=O)NC(=N)N)c(F)c1N1CCC(c2nccs2)CC1` [Example 1.030] was 7.19; that for `N#Cc1ccc(COC(=O)NC(=N)N)c(F)c1N1CCN(c2cccnc2)CC1` [Example 1.012] was 8.22.
For `N#Cc1ccc(COC(=O)NC(=N)N)c(F)c1N1CC=C(c2ccc(F)cc2)CC1` [Example 1.033], the pIC50 is 7.62.
For `N#Cc1cccc(C2CCN(c3c(C#N)ccc(COC(=O)NC(=N)N)c3F)CC2)c1` [Example 1.022], the pIC50 is 8.30.
For `CS(=O)(=O)N1CCC(C2CCN(c3c(C#N)ccc(COC(=O)NC(=N)N)c3F)CC2)CC1` [Example 1.017], the pIC50 is 8.30.
In the case of `N#Cc1ccc(COC(=O)NC(=N)N)c(F)c1N1CCN(c2cccnn2)CC1` [Example 1.083], the pIC50 was 7.47.
The value for `N#Cc1ccc(COC(=O)NC(=N)N)c(F)c1N1CCC(C#N)(c2ccccc2)CC1` [Example 2.001] was 6.78; that for `N#Cc1ccc(COC(=O)NC(=N)N)c(F)c1N1CCN(c2ncc(F)cn2)CC1` [Example 1.069] was 7.57.
Under `N#Cc1ccc(COC(=O)NC(=N)N)c(F)c1N1CCC(N2CCCC2=O)CC1` [Example 1.088] stands 6.05.
The value for `N#Cc1ccc(COC(=O)NC(=N)N)c(F)c1N1CCN(c2ncccn2)CC1` [Example 1.081] was 7.35; that for `CS(=O)(=O)c1ccc(N2CCN(c3c(C#N)ccc(COC(=O)NC(=N)N)c3F)CC2)c(F)c1` [Example 1.042] was 7.34; that for `N#Cc1ccc(N2CCN(c3cc(COC(=O)NC(=N)N)c(F)cc3C#N)CC2)cc1` [Example 3.001] was 6.41.
In the case of `N#Cc1ccc(COC(=O)NC(=N)N)c(F)c1N1CCN(c2ccccn2)CC1` [Example 1.051], the pIC50 was 6.57.
Under `CCc1ccc(N2CCN(c3c(C#N)ccc(COC(=O)NC(=N)N)c3F)CC2)cc1` [Example 1.060] stands 6.48; under `N#Cc1ccc(COC(=O)NC(=N)N)c(F)c1N1CCN(c2nccs2)CC1` [Example 1.036], 7.57; under `Cc1ccc(N2CCN(c3c(C#N)ccc(COC(=O)NC(=N)N)c3F)CC2)nn1` [Example 1.068], 7.26.
Take `CC(=O)N1CCN(C2CCN(c3c(C#N)ccc(COC(=O)NC(=N)N)c3F)CC2)CC1` [Example 1.003]: the pIC50 was 7.17.
Under `CN(C)c1ccc(N2CCN(c3c(C#N)ccc(COC(=O)NC(=N)N)c3F)CC2)nn1` [Example 1.064] stands 7.48.
Under `N#Cc1ccc(COC(=O)NC(=N)N)c(F)c1N1CCC(O)(c2ccccc2)CC1` [Example 1.085] stands 6.55; under `N#Cc1ccc(COC(=O)NC(=N)N)c(F)c1N1CCC(c2ccncc2)C1` (centres unmarked) [Example 1.019], 7.77.
Under `N#Cc1ccc(COC(=O)NC(=N)N)c(F)c1N1CCC(c2cccc(Cl)c2)CC1` [Example 1.076] stands 7.25; under `N#Cc1ccc(COC(=O)NC(=N)N)c(F)c1N1CCN(c2ccc(F)cc2)C(=O)C1` [Example 1.050], 8.30; under `CN1CCN(C2CCN(c3c(C#N)ccc(COC(=O)NC(=N)N)c3F)CC2)C(=O)C1` [Example 1.062], 6.16.
Take `N#Cc1ccc(COC(=O)NC(=N)N)c(F)c1N1CCN(c2ccc(Cl)cn2)CC1` [Example 1.078]: the pIC50 is 8.15.
Under `N#Cc1ccc(N2CCN(c3c(C#N)ccc(COC(=O)NC(=N)N)c3F)CC2)cc1` [Example 1.009] stands 8.52; under `N#Cc1ccc(COC(=O)NC(=N)N)c(F)c1N1CC=C(c2ccc(Cl)cc2)CC1` [Example 1.057], 8.22; under `Cc1cc(N2CCN(c3c(C#N)ccc(COC(=O)NC(=N)N)c3F)CC2)ccn1` [Example 2.004], 8.52.
The value for `N#Cc1ccc(COC(=O)NC(=N)N)c(F)c1N1CCN(c2cccc(F)c2)CC1` [Example 1.028] was 7.85.
In the case of `N#Cc1ccc(COC(=O)NC(=N)N)c(F)c1N1CCN(c2ccncc2)CC1` [Example 2.003], the pIC50 is 8.15.
Take `N#Cc1ccc(COC(=O)NC(=N)N)c(F)c1N1CC=C(c2ncccn2)CC1` [Example 1.063]: the pIC50 is 7.47.

Values taken from patent US10336729B2, “4-cyano-benzyl carbamimidoylcarbamate derivatives and their use as AOC3 inhibitors” (Boehringer Ingelheim International GmbH, priority 2016, dated 2019).
